From PubChem BioAssay (NCI)
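Values below derive from 48-hour exposures of cells grown in 96-well plates, with endpoints linearly interpolated between the two concentrations bracketing the appropriate inhibition level. TGI: total growth inhibition.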 Where a SMILES comes first, the peptide text is derived from it. The star is where a group is joined. Fmoc = O=C(OCC1c2ccccc2-c2ccccc21)*; Boc = CC(C)(C)OC(=O)*

Key:
Test in all cases: DTP human tumour cell line panel, 48 h
UO-31 renal = test system: UO-31 renal
NCI/ADR-RES ovarian = test system: NCI/ADR-RES ovarian
CCRF-CEM leukemia = test system: CCRF-CEM leukemia
HOP-18 NSCLC = test system: HOP-18 NSCLC
LXFL 529 NSCLC = test system: LXFL 529 NSCLC
DLD-1 colon = test system: DLD-1 colon
DMS 114 small cell lung = test system: DMS 114 small cell lung
KM20L2 colon = test system: KM20L2 colon
SNB-78 CNS = test system: SNB-78 CNS
M19-MEL melanoma = test system: M19-MEL melanoma
XF 498 CNS = test system: XF 498 CNS
DMS 273 small cell lung = test system: DMS 273 small cell lung

SMILES	TGI (UO-31 renal) [µM]	TGI (NCI/ADR-RES ovarian) [µM]	TGI (CCRF-CEM leukemia) [µM]	further results
C1CC[C@H]2SSC3CCCC[C@H]3SSC2C1 (stereo partly specified)	> 100	> 100	> 100	–
COC(=O)/C=C/C1(O)C=CC(=O)C=C1	3.51	> 68.2	10.7	–
Cc1ccc2nc(C=Nc3ccc(Cl)cc3)cc(C)c2c1	7.91	32.1	13.1	–
COc1ccc(C2CC3(c4ccccc4)ON=C(c4ccccc4)N3c3ccccc3S2)cc1 (stereo unspecified)	> 100	> 100	> 100	–
CN1CN(c2ccccc2)C2(CCN(CCC3COc4ccccc4O3)CC2)C1=O (stereo unspecified)	38.2	49.6	77.4	–
O=C(NCCNCCCNC(=O)c1cc(-c2ccccc2)nc2ccccc12)c1cccc(OCc2ccccc2)c1OCc1ccccc1	3.03	3.51	3.47	–
CSc1ncc2c(n1)sc1c(=O)n(-c3ccccc3)cnc12	> 100	> 100	> 100	–
COc1ccc(C(=O)/C=C/c2ccc(OCCSCCCCCCCCCCSCCOc3ccc(/C=C/C(=O)c4ccc(OC)c(OC)c4)cc3)cc2)cc1OC	–	–	> 100	–
O=C(C/C(=N/O)c1cc(-c2ccccc2)no1)c1ccccc1	> 100	69.1	> 100	–
C=C(CN1CC2C[C@](C(=O)OC)(c3cc4ccccc4[nH]3)C1C(OC)C2OC)S(=O)(=O)c1ccccc1 (stereo partly specified)	3.77	20.7	> 77.2	–
CCOC(=O)c1c2c(c(O)c3ccccc3c(O)n(Cc3ccccc3)c1C)C(=O)C=CC2=O	> 100	> 100	> 100	–
COc1ccc(/C=C2\CCC/C(=C\c3ccc(O)c(CN4CCCCC4)c3)C2=O)cc1	39.9	32.8	> 100	–
CCN(CC)CCNc1ccc2nnn3c4ccc(O)cc4c(=O)c1c23	4.06	12.2	31.6	TGI (HOP-18 NSCLC): 42.7 µM; TGI (LXFL 529 NSCLC): 20.3 µM; TGI (DLD-1 colon): 17.5 µM; TGI (DMS 114 small cell lung): 22.1 µM; TGI (KM20L2 colon): 17.6 µM; TGI (SNB-78 CNS): 21.1 µM
O=C(O)CC(Sc1ccccc1)c1ccccc1 (stereo unspecified)	> 100	> 100	–	–
c1ccc2c(c1)CCc1[nH]c3c(c1-2)-c1ccccc1CC3	> 100	> 100	> 100	–
Cc1ccc(S(=O)c2sccc2C=O)cc1 (stereo unspecified)	> 100	67.2	56	–
CN1CCC2(CC1)C(=NC1CCCCC1)NC(=S)N2c1ccccc1	> 100	> 100	> 100	–
O=C1CSC(c2c[nH]c3ccccc23)N1c1ccccc1[N+](=O)[O-] (stereo unspecified)	> 100	–	> 100	–
CCOP(=O)(OCC)/C(C#N)=C/c1cnc[nH]1	> 100	> 100	> 100	–
COc1ccc2cc(-c3nc(N)nc(N4N=C(C)CC4(C)C)n3)c(=N)oc2c1	55.1	> 100	41.4	–
CSc1ccc(/C=C2\N=C(c3ccccc3)N(c3nc4cc(C)c(C)cc4s3)C2=O)cc1	> 100	> 100	34.6	–
COC(=O)C1=C(C)C=C(N2CCOCC2)C(C(=O)OC)C1c1ccccc1 (stereo unspecified)	> 10	> 10	> 10	–
NC12CCC(CC1=O)C2 (stereo unspecified)	> 100	> 100	> 100	–
CCOC(=O)C(NC(=O)c1ccccc1)(Nc1ccc(Cl)cc1C(F)(F)F)C(F)(F)F (stereo unspecified)	> 100	10.6	–	–

SMILES	TGI (UO-31 renal) [µM]	TGI (NCI/ADR-RES ovarian) [µM]	TGI (CCRF-CEM leukemia) [µM]	further results
CCOC(=O)c1[nH]cc(C)c1-c1ccc2c(-c3ccccc3)nc3ccccc3n12	14.5	10.3	13	–
COC1OC(COC(=O)c2cc(O)c(O)c(O)c2)C(OC(=O)c2cc(O)c(O)c(O)c2)C(OC(=O)c2cc(O)c(O)c(O)c2)C1OC(=O)c1cc(O)c(O)c(O)c1 (stereo unspecified)	> 100	98.4	42.5	–
O=C(O)C12CCCCC1CCCC2 (stereo unspecified)	–	–	> 100	TGI (M19-MEL melanoma): > 100 µM; TGI (XF 498 CNS): > 100 µM; TGI (HOP-18 NSCLC): > 100 µM; TGI (DMS 273 small cell lung): > 100 µM; TGI (LXFL 529 NSCLC): > 100 µM; TGI (DLD-1 colon): > 100 µM; TGI (DMS 114 small cell lung): > 100 µM; TGI (KM20L2 colon): > 100 µM
COc1ccc2[nH]c3c(C)c4ccnc(NCCCN(C)CCCNc5ccc6ncn7c8ccccc8c(=O)c5c67)c4c(C)c3c2c1	4.21	4.55	5.62	–
O=C(CCCl)NNC1=NCCCN1	> 100	> 100	> 100	–
CN(c1cn(C2CC[C@@H](CO)O2)c(=O)[nH]c1=O)C1CCCCC1 (stereo partly specified)	> 100	> 100	> 100	–
CC(C)(C)c1cc2c(O)c(c1)Cc1cc(C(C)(C)C)cc(c1O)Cc1cc(C(C)(C)C)cc(c1O)Cc1cc(C(C)(C)C)cc(c1O)Cc1cc(C(C)(C)C)cc(c1O)Cc1cc(C(C)(C)C)cc(c1O)Cc1cc(C(C)(C)C)cc(c1O)Cc1cc(C(C)(C)C)cc(c1O)C2	> 50	> 50	> 50	–
CC1C(OC2O[C@@H]3O[C@@]4(C)CC[C@H]5[C@H](C)CC[C@@H](C2C)[C@@]35O4)O[C@@H]2O[C@@]3(C)CC[C@H]4[C@H](C)CC[C@@H]1[C@@]24O3 (stereo partly specified)	–	–	> 50	–
CC1CCC2(CC1)NC1=C(CC(C)CC1)C1=C2CC(C)CC1 (stereo unspecified)	51.7	–	43.6	–
Brc1ccc2c(c1)-c1nc3nc4c(cc3cc1CC2)CCc1ccc(Br)cc1-4	> 100	> 100	–	–
c1ccc2c(c1)NC1(N3CCCCC3)CCCCC21 (stereo unspecified)	> 100	> 100	> 100	–
COC(=O)CCC(C)C1CCC2C3C(C[C@H](OC(C)=O)[C@]12C)[C@@]1(C)CCC2(C[C@H]1C[C@H]3OC(C)=O)OOC1(CC[C@]3(C)C4C[C@H](OC(C)=O)[C@]5(C)C(C(C)CCC(=O)OC)CCC5C4[C@H](OC(C)=O)C[C@@H]3C1)OO2 (stereo partly specified)	> 100	> 100	> 100	–
CSC12c3cc(C)n(-c4ccccc4)c3CC(C)(C)CN1C(=O)C2Oc1ccccc1 (stereo unspecified)	> 100	> 100	> 100	–
COc1cccc(NC(=O)C(=O)C(C(=O)c2ccccc2F)C2OC(=O)c3ccccc32)c1 (stereo unspecified)	> 100	–	62.3	TGI (M19-MEL melanoma): > 100 µM; TGI (DMS 273 small cell lung): > 100 µM; TGI (LXFL 529 NSCLC): > 100 µM; TGI (DLD-1 colon): > 100 µM; TGI (KM20L2 colon): > 100 µM; TGI (SNB-78 CNS): > 100 µM
CC(=O)C1=C(C)N(c2ccc(C)cc2)C2(O)C3=C(C(=O)c4ccccc4C3=O)C(O)=CC12Cl (stereo unspecified)	34.6	28.3	–	–
COC(=O)[C@H](CC(C)C)Nc1c(O)c2c(c(O)c1Cl)C(=O)C=CC2=O	–	> 10	> 10	–
O=c1[nH]c(=O)n(C2OC(CO)C(O)C2O)cc1Oc1ccccc1 (stereo unspecified)	–	> 100	> 100	–
COC(=O)C1=C(OC(=O)/C=C/c2ccc(Cl)cc2)C(C(=O)OC)[C@@]2(O)[C@@H](C(=O)OC)[C@H](C)C[C@@H]1[C@@H]2C(=O)OC (stereo partly specified)	57.1	64.6	64.8	–
Cc1cc(S(=O)(=O)/N=C(/[N-]S(=O)(=O)c2ccc(Cl)cc2)[n+]2ccc(N(C)C)cc2)c(SCC(=O)O)cc1Cl	> 100	–	> 100	–
Cc1cccc(-c2cc(=O)c3c(C)cc(C)nc3[nH]2)c1	> 100	4.68	> 86.5	–
COC(=O)C1(C(=O)OC)N=C(C)OC1/C=C/c1ccccc1 (stereo unspecified)	> 100	> 100	> 100	–
O=C(O)CCCc1ccc2ccccc2c1	> 100	> 100	> 100	–
CC(OC(=O)C(CC(=O)OC(C)(C)C)NC(=O)OC(C)(C)C)C(=O)OCc1ccccc1 (stereo unspecified)	> 100	> 100	> 100	–
Nc1nc2c(ncn2Cc2ccccc2CO)c(=O)[nH]1	> 100	> 100	> 100	–

SMILES	TGI (UO-31 renal) [µM]	TGI (NCI/ADR-RES ovarian) [µM]	TGI (CCRF-CEM leukemia) [µM]	further results
Cc1c2ccncc2c(C)c2c1[nH]c1ccc(OCC(F)(F)F)cc12	3.16	–	4.9	TGI (M19-MEL melanoma): 3.49 µM; TGI (XF 498 CNS): 3.07 µM; TGI (DMS 273 small cell lung): 2.17 µM; TGI (LXFL 529 NSCLC): 2.43 µM; TGI (DLD-1 colon): 3.32 µM; TGI (KM20L2 colon): 2.78 µM; TGI (SNB-78 CNS): 5.47 µM
CCOC1Oc2ccccc2-c2nc(SC)ncc21 (stereo unspecified)	> 100	> 100	> 100	–
O=C(c1ccc(Cl)cc1)N(C(=S)OCc1ccccn1)c1ccccc1	> 100	> 100	> 100	–
CC(=O)OC12c3ccccc3-c3ccccc3C1C1C(=O)OC(=O)C12 (stereo unspecified)	> 10	> 10	> 10	–
CC(C)(CCCCC(C)(C)[N+](C)(C)C)[N+](C)(C)C	> 100	> 100	> 100	–
COc1ccccc1/C=C1\NC(=S)N(/C=C2\C(=O)Oc3ccccc3C2=O)C1=O	82.9	> 100	76.5	–
O=C1CC(=O)NC(=NNS(=O)(=O)c2ccccc2)N1	> 100	> 100	> 100	–
CCOC(=O)C(=O)/C(=C/N1C(=O)CC(=O)NC1=S)C(=O)OCC	> 100	> 100	> 100	–
OCCOc1ccccc2cccc1-2	> 100	> 100	> 100	–
O=C1C=CC(=O)c2c1ccc1c3ccccc3n(-c3ccccc3[N+](=O)[O-])c21	2.87	20.5	> 31.6	–
C=CCOC(=O)C1=C(CCC[C@@H](C)O[Si](C)(C)C(C)(C)C)N=C(N)N2[C@H](CCO)CC[C@@H]12	29.6	35	–	–
O=C1C=C(OCCCCl)C(=O)c2c(O)ccc(O)c21	2.41	7.3	3.75	–
CC(C)(C)OC(=O)NCCCCC(NC(=O)C(Cc1c[nH]c2ccccc12)NC(=O)OCC1c2ccccc2-c2ccccc21)C(=O)N1CCCC1C(=O)NCC(N)=O (stereo unspecified) (Fmoc-WK(Boc)PG-NH2; configuration not given here)	> 100	> 100	> 100	–
COC(=O)[C@H](Cc1ccc(OC(C)(C)C)cc1)N[C@H](C)C(=O)N[C@@H](Cc1ccccc1)C(=O)OCc1ccccc1	43.7	> 100	> 100	–
COc1ccc(C2C3CCc4ccccc4C3=NN2S(=O)(=O)c2ccc(/C=C/C(=O)O)cc2)cc1 (stereo unspecified)	38	–	22.9	–
COc1cc2c(cc1OCCCCOc1cc3c(cc1OC)C(=O)N1CCC[C@H]1C(=O)N3)N=C[C@@H]1CCCN1C2=O	28	29	–	–
O=C(CSc1nc2ccc(I)cc2c(=O)n1Cc1ccccc1)NNC(=O)c1ccccc1	2.73	49	> 100	–
COc1cc(C2C(Cl)C(=O)N2NC(=O)c2ccc(N)cc2)cc(Br)c1O (stereo unspecified)	35.6	–	12.1	TGI (M19-MEL melanoma): 32 µM; TGI (XF 498 CNS): 30.7 µM; TGI (DMS 273 small cell lung): 31.9 µM; TGI (LXFL 529 NSCLC): 11.3 µM; TGI (DLD-1 colon): 40.2 µM; TGI (DMS 114 small cell lung): 21.8 µM; TGI (KM20L2 colon): 33.6 µM; TGI (SNB-78 CNS): 43.9 µM
O=C1C=CC(=O)c2c1ccc1c3ccccc3n(Cc3cccc([N+](=O)[O-])c3)c21	> 100	> 90.3	23	–
CCOc1cc2oc(C)cc(=O)c2c(OC)c1C=Nc1ccc(Cn2c(C)nc3ccccc32)cc1	> 100	> 100	> 100	–
Cc1nnc(N)nc1/C=C/c1c(O)ccc2ccccc12	84.6	> 100	> 100	–
CCN(CC)Cc1c(/C=C\c2cc(OC)c(OC)c(OC)c2)ccc(OC)c1O	> 94.1	6.29	> 100	TGI (M19-MEL melanoma): > 100 µM; TGI (XF 498 CNS): 21.5 µM; TGI (HOP-18 NSCLC): > 100 µM; TGI (DMS 273 small cell lung): > 100 µM; TGI (LXFL 529 NSCLC): > 100 µM; TGI (DLD-1 colon): > 100 µM; TGI (DMS 114 small cell lung): 5.68 µM; TGI (KM20L2 colon): 11.9 µM; TGI (SNB-78 CNS): > 100 µM
O=C(CNC(c1ccccc1)(c1ccccc1)c1ccccc1)NC1CCCCC1NC(=O)CNC(c1ccccc1)(c1ccccc1)c1ccccc1 (stereo unspecified)	> 100	> 100	> 100	–
